Data published in patent publication US7998978B2 (Pfizer Inc., priority 2006, dated 2011).

target: T1, JNK1α1 (Homo sapiens, UniProt P45983); experiment: Coupled spectrophotometric (PK/LDH) JNK1α1 assay: % inhibition and Ki determination; type: biochemical; conditions: @1 uM; read-out: % Inhibition JNK-1
T1 construct: catalytic domain containing amino acids 1-364 and N-terminal hexahistidine tag; hexahistidine (His6) (N); made in house; host or cells: E. coli BL21 (DE3)
Outline: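 Initial rates were taken from the absorbance decrease at 340 nm at 30° C. Ki was fitted with a tight-binding model over 11 concentrations (top 100 μM); single-point inhibition was tested at 1 or 10 μM.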

T1 sequence (P45983 1-364): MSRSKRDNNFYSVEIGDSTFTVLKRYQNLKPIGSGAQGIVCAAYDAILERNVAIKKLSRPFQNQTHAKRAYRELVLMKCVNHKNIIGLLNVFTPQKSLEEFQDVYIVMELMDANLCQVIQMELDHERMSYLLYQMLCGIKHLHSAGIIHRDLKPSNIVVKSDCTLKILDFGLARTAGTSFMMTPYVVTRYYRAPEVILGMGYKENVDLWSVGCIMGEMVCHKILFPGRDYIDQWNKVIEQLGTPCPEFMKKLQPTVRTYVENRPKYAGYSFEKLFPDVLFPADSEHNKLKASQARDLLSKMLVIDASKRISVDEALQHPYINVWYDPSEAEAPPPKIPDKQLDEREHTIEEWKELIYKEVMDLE

Point of comparison: `Cc1noc(C(NC(=O)c2cccc3cnc(N[C@H]4CC[C@H](O)CC4)nc23)c2ccccc2)n1` (stereo partly drawn) [Example 527, 2-[(trans-4-hydroxycyclohexyl)amino]-N-[(3-methyl-1,2,4-oxadiazol-5-yl)(phenyl)methyl]quinazoline-8-carboxamide], inhibition at 1 µM 34%. Against it:
- Cc1nnc(NC(=O)c2cccc3cnc(N[C@H]4CC[C@H](O)CC4)nc23)o1 [Example 323, 2-[(trans-4-hydroxycyclohexyl)amino]-N-(5-methyl-1,3,4-oxadiazol-2-yl)quinazoline-8-carboxamide] — higher, 42%
- CCn1cc(CNC(=O)c2cccc3cnc(N[C@H]4CC[C@H](O)CC4)nc23)cn1 [Example 489, N-[(1-ethyl-1H-pyrazol-4-yl)methyl]-2-[(trans-4-hydroxycyclohexyl)amino]quinazoline-8-carboxamide] — lower, 16%
- CC(Cn1cccn1)NC(=O)c1cccc2cnc(N[C@H]3CC[C@H](O)CC3)nc12 (stereo partly drawn) [Example 482, 2-[(trans-4-hydroxycyclohexyl)amino]-N-[1-methyl-2-(1H-pyrazol-1-yl)ethyl]quinazoline-8-carboxamide] — lower, 13%
- Cc1cccn(CCNC(=O)c2cccc3cnc(N[C@H]4CC[C@H](O)CC4)nc23)c1=O [Example 531, 2-[(trans-4-hydroxycyclohexyl)amino]-N-[2-(3-methyl-2-oxopyridin-1(2H)-yl)ethyl]quinazoline-8-carboxamide] — lower, 26%
- O[C@H]1CC[C@H](Nc2ncc3ccc(OCC(F)(F)c4ccccn4)cc3n2)CC1 [Example 290, trans-4-{[7-(2,2-difluoro-2-pyridin-2-ylethoxy)quinazolin-2-yl]amino}cyclohexanol] — higher, 53%
- O[C@H]1CC[C@H](Nc2ncc3ccc(OC(CN4CCOCC4)c4ccccc4)cc3n2)CC1 (stereo partly drawn) [Example 298, trans-4-{[7-(2-morpholin-4-yl-1-phenylethoxy)quinazolin-2-yl]amino}cyclohexanol] — lower, 18%
- O[C@H]1CC[C@H](Nc2ncc3ccc(OC4CCOCC4)cc3n2)CC1 [Example 268, trans-4-{[7-(tetrahydro-2H-pyran-4-yloxy)quinazolin-2-yl]amino}cyclohexanol] — higher, 67%
- C[C@@H](NC(=O)c1cccc2cnc(N[C@H]3CC[C@H](O)CC3)nc12)[C@@H](O)c1ccccc1 [Example 472, 2-[(trans-4-hydroxycyclohexyl)amino]-N-[(1R,2S)-2-hydroxy-1-methyl-2-phenylethyl]quinazoline-8-carboxamide] — lower, 25%
- CC1CN(CCOc2cccc3cnc(N[C@H]4CC[C@H](O)CC4)nc23)CC(C)O1 (stereo partly drawn) [Example 267, trans-4-({8-[2-(2,6-dimethylmorpholin-4-yl)ethoxy]quinazolin-2-yl}amino)cyclohexanol] — lower, 18%
- O=C(N[C@@H](CO)c1ccccc1)c1cccc2cnc(N[C@H]3CC[C@H](O)CC3)nc12 [Example 471, 2-[(trans-4-hydroxycyclohexyl)amino]-N-[(1R)-2-hydroxy-1-phenylethyl]quinazoline-8-carboxamide] — lower, 19%
- CCN1CC(CNC(=O)c2cccc3cnc(N[C@H]4CC[C@H](O)CC4)nc23)CC1=O (stereo partly drawn) [Example 508, N-[(1-ethyl-5-oxopyrrolidin-3-yl)methyl]-2-[(trans-4-hydroxycyclohexyl)amino]quinazoline-8-carboxamide] — lower, 21%
- CC(C)Nc1ncc2ccc(C(=O)N[C@H](CO)C(C)C)cc2n1 [Example 425, N-[(1S)-1-(hydroxymethyl)-2-methylpropyl]-2-(isopropylamino)quinazoline-7-carboxamide] — lower, 11%
- CC(C)Nc1ncc2ccc(C(=O)N[C@H](CO)CC3CCCCC3)cc2n1 [Example 429, N-[(1S)-2-cyclohexyl-1-(hydroxymethyl)ethyl]-2-(isopropylamino)quinazoline-7-carboxamide] — lower, 25%

same assay, conditions: @10 uM; read-out: % Inhibition JNK-1

Point of comparison: `Cn1ccnc1-c1ccc(CNc2cc3cc(-c4cn[nH]c4)ccc3cn2)cc1` [Example 230, N-[4-(1-methyl-1H-imidazol-2-yl)benzyl]-6-(1H-pyrazol-4-yl)isoquinolin-3-amine], inhibition at 10 µM 43%. Against it:
- Cc1cc(C)n(CC(C)NC(=O)c2cccc3cnc(N[C@H]4CC[C@H](O)CC4)nc23)n1 (stereo partly drawn) [Example 483, N-[2-(3,5-dimethyl-1H-pyrazol-1-yl)-1-methylethyl]-2-[(trans-4-hydroxycyclohexyl)amino]quinazoline-8-carboxamide] — higher, 71%

same assay, conditions: JNK-1

Point of comparison: `CC(C)c1ncc(NC(=O)c2ccc3cnc(N[C@H]4CC[C@H](O)CC4)nc3c2)cn1` [Example 359, 2-[(trans-4-hydroxycyclohexyl)amino]-N-(2-isopropylpyrimidin-5-yl)quinazoline-7-carboxamide], Ki 1720 nM. Against it:
- CN(C)C(=O)CCC(=O)Nc1cc2cc(-c3cn[nH]c3)ccc2cn1 [Example 40, N,N-dimethyl-N′-[6-(1H-pyrazol-4-yl)isoquinolin-3-yl]succinamide] — 220-fold lower, 8 nM
- O=C(N[C@@H]1CCC[C@H]1O)c1cccc2cnc(N[C@H]3CC[C@H](O)CC3)nc12 (relative stereo) [Example 136, 2-[(trans-4-hydroxycyclohexyl)amino]-N-[(trans)-2-hydroxycyclopentyl]quinazoline-8-carboxamide] — 6.7-fold lower, 257 nM
- COc1ccc(CCCC(=O)Nc2cc3cc(-c4cn[nH]c4)ccc3cn2)cc1 [Example 41, 4-(4-methoxyphenyl)-N-[6-(1H-pyrazol-4-yl)isoquinolin-3-yl]butanamide] — 120-fold lower, 14 nM
- OC1(c2cncnc2)CCC(Nc2cc3cc(-c4cn[nH]c4)ccc3cn2)CC1 (centres unmarked) [Example 215, 4-{[6-(1H-pyrazol-4-yl)isoquinolin-3-yl]amino}-1-pyrimidin-5-ylcyclohexanol] — 6.9-fold lower, 250 nM
- FCCN[C@H]1CC[C@H](Nc2ncc3cccc(OC4CCOC4)c3n2)CC1 (stereo partly drawn) [Example 194, trans-N-(2-fluoroethyl)-N′-[8-(tetrahydrofuran-3-yloxy)quinazolin-2-yl]cyclohexane-1,4-diamine] — within 1.5-fold, 1460 nM
- O=C(NC1CCS(=O)(=O)C1)c1cccc2cnc(N[C@H]3CC[C@H](O)CC3)nc12 (stereo partly drawn) [Example 119, N-(1,1-dioxidotetrahydro-3-thienyl)-2-[(trans-4-hydroxycyclohexyl)amino]quinazoline-8-carboxamide] — 4.6-fold lower, 377 nM
- COc1ccc(NC(=O)c2ccc3cnc(N[C@H]4CC[C@H](O)CC4)nc3c2)cn1 [Example 349, 2-[(trans-4-hydroxycyclohexyl)amino]-N-(6-methoxypyridin-3-yl)quinazoline-7-carboxamide] — 1.7-fold lower, 1010 nM
- CCn1cc(CNC(=O)c2ccc3cnc(N[C@H]4CC[C@H](O)CC4)nc3c2)cn1 [Example 356, N-[(1-ethyl-1H-pyrazol-4-yl)methyl]-2-[(trans-4-hydroxycyclohexyl)amino]quinazoline-7-carboxamide] — within 1.5-fold, 1480 nM
- O=C(N[C@H](CO)c1ccccc1)c1ccc2cnc(NC3CCCCC3)nc2c1 [Example 373, 2-(cyclohexylamino)-N-[(1S)-2-hydroxy-1-phenylethyl]quinazoline-7-carboxamide] — 23-fold lower, 74 nM
- CN(C)C(=O)c1ccc2cnc(N[C@H]3CC[C@H](O)CC3)nc2c1 [Example 59, 2-[(trans-4-hydroxycyclohexyl)amino]-N,N-dimethylquinazoline-7-carboxamide] — 2.5-fold higher, 4340 nM
- O=C(N[C@H]1CC[C@H](CO)CC1)c1cccc2cnc(N[C@H]3CC[C@H](O)CC3)nc12 [Example 457, 2-[(trans-4-hydroxycyclohexyl)amino]-N-[trans-4-(hydroxymethyl)cyclohexyl]quinazoline-8-carboxamide] — 6.3-fold lower, 275 nM
- O=C(NCCCO)c1ccc2cnc(N[C@H]3CC[C@H](O)CC3)nc2c1 [Example 338, 2-[(trans-4-hydroxycyclohexyl)amino]-N-(3-hydroxypropyl)quinazoline-7-carboxamide] — 2.7-fold lower, 637 nM
- O=C(NCC(O)c1ccc(F)c(F)c1)c1cccc2cnc(N[C@H]3CC[C@H](O)CC3)nc12 (stereo partly drawn) [Example 456, N-[2-(3,4-difluorophenyl)-2-hydroxyethyl]-2-[(trans-4-hydroxycyclohexyl)amino]quinazoline-8-carboxamide] — 6.8-fold lower, 254 nM
- CNC(=O)c1ccc2cnc(N[C@H]3CC[C@H](O)CC3)nc2c1 [Example 58, 2-[(trans-4-hydroxycyclohexyl)amino]-N-methylquinazoline-7-carboxamide] — 6.6-fold lower, 261 nM
- Fc1ccc2cnc(NC3CCCCC3)nc2c1 [Example 148] — 3.8-fold lower, 456 nM
- Cn1c(=O)c2c(ncn2CC(=O)Nc2cc3cc(-c4cn[nH]c4)ccc3cn2)n(C)c1=O [Example 52, 2-(1,3-dimethyl-2,6-dioxo-1,2,3,6-tetrahydro-7H-purin-7-yl)-N-[6-(1H-pyrazol-4-yl)isoquinolin-3-yl]acetamide] — 110-fold lower, 15 nM
- O[C@H]1CC[C@H](Nc2ncc3cccc(OCC4CCCCO4)c3n2)CC1 (stereo partly drawn) [Example 166, trans-4-{[8-(tetrahydro-2H-pyran-2-ylmethoxy)quinazolin-2-yl]amino}cyclohexanol] — 5.8-fold lower, 296 nM
- CC(C)[C@@H](CO)NC(=O)c1ccc2cnc(NC3CCCCC3)nc2c1 [Example 389, 2-(cyclohexylamino)-N-[(1S)-1-(hydroxymethyl)-2-methylpropyl]quinazoline-7-carboxamide] — 5.4-fold lower, 318 nM
- COc1ccc2c(c1)CCC2C(=O)Nc1cc2cc(-c3cn[nH]c3)ccc2cn1 (centres unmarked) [Example 47, 5-methoxy-N-[6-(1H-pyrazol-4-yl)isoquinolin-3-yl]indane-1-carboxamide] — not separable, > 50 nM
- CC(C)C(CO)NC(=O)c1cccc2cnc(N[C@H]3CC[C@H](O)CC3)nc12 (stereo partly drawn) [Example 450, 2-[(trans-4-hydroxycyclohexyl)amino]-N-[1-(hydroxymethyl)-2-methylpropyl]quinazoline-8-carboxamide] — 12-fold lower, 144 nM
- CNC(=O)COc1c(C)ccc2cnc(N[C@H]3CC[C@H](O)CC3)nc12 [Example 206, 2-({2-[(trans-4-hydroxycyclohexyl)amino]-7-methylquinazolin-8-yl}oxy) N-methylacetamide] — 3.5-fold lower, 495 nM
